Data published in patent publication US10774071B2, “PD-1/PD-L1 inhibitors” (Gilead Sciences, Inc., priority 2018, dated 2020).
Read-outs that look alike come from different tables or passages of the source.

Key:
PD-1/PD-L1 = PD-1/PD-L1 (Homo sapiens (Human), UniProt Q9NZQ7); assay: PD-1/PD-L1 biochemical protein-protein interaction assay (ALPHA); type: binding; settings: read-out: IC50 PD-L1-PD1
PD-L1 = PD-L1 (Homo sapiens (Human), UniProt Q9NZQ7); assay: PD-L1/PD-L1 dimerization biochemical protein-protein interaction assay (ALPHA); type: binding; settings: read-out: AC50 PDL1 Dimer 1 nM
PD-L1, sequence (Q9NZQ7 19-238): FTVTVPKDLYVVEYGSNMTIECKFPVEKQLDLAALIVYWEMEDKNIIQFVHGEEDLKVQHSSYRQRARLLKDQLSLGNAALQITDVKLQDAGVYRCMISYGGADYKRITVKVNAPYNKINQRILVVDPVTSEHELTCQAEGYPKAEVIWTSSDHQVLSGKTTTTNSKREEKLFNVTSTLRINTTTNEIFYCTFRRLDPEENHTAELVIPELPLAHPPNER
PD-L1, sequence (Q9NZQ7 19-238): as above

[1] = 0.3 nM His tagged PD-L1, 2.5 nM biotinylated Fc-PD-1, Table 3B
[2] = 0.5 nM His tagged PD-L1 and 0.5 nM FLAG tagged PD-L1, Table 4B
[3] = 0.3 nM His tagged PD-L1, 2.5 nM biotinylated Fc-PD-1, readings of 0.064 nM are equal to or less than 0.064 nM
[4] = 0.5 nM His tagged PD-L1 and 0.5 nM FLAG tagged PD-L1, Table 4A

PD-1/PD-L1, sequence (Q9NZQ7 19-238): as above

SMILES	IC50 (PD-1/PD-L1; [1]) [nM]	AC50 (PD-L1; [2]) [nM]	IC50 (PD-1/PD-L1; [3]) [nM]	AC50 (PD-L1; [4]) [nM]
COc1nc(-c2cccc(-c3cccc4c3CC[C@@H]4Oc3nc(OC)c(CN4CCC(NC(C)=O)C4)cc3Cl)c2Cl)ccc1CNC[C@@H]1CCC(=O)N1 (stereo partly drawn) [B-64]	0.076	40.5		
COc1nc(-c2cccc(-c3cccc4c3CC[C@@H]4Oc3nc(OC)c(CNC(C)(C)CC(=O)O)cc3Cl)c2Cl)ccc1CNC[C@@H]1CCC(=O)N1 [B-197]	0.064	12.5		
COc1nc(-c2cccc(-c3cccc4c3CC[C@@H]4Oc3nc4c(nc3Cl)c(CNC[C@@H]3CCC(=O)N3)nn4C)c2Cl)ccc1CNC[C@@H]1CCC(=O)N1 [B-147]	0.351	178		
COc1cc(-c2cccc(-c3cccc4c3CC[C@@H]4Nc3nc(OC)c(CN(C)CC(=O)O)nc3C(F)(F)F)c2Cl)cc(F)c1CNC[C@@H]1CCC(=O)N1 [A-30]			≤ 0.064	9.89
COC(=O)C12CCC(CC1)N(Cc1nc(C(F)(F)F)c(N[C@H]3CCc4c(-c5cccc(-c6ccc(CNC[C@@H]7CCC(=O)N7)c(OC)n6)c5Cl)cccc43)nc1OC)C2 [A-82]			0.14	84.9
COc1nc(-c2cccc(-c3cccc4c3CC[C@@H]4Nc3nc(OC)c(CN4CC[C@H](C(=O)O)C4)cc3C(F)(F)F)c2Cl)ccc1CNC[C@@H]1CCC(=O)N1 [A-3]			≤ 0.064	13.9
COc1nc(O[C@H]2CCc3c(-c4cccc(-c5cc(F)c(CNC[C@@H]6CCC(=O)N6)c(OC)n5)c4Cl)cccc32)c(C(F)(F)F)cc1CN1CC2(C(=O)O)CCC1CC2 [B-190]	0.064	8.98		
COc1nc(-c2cccc(-c3cccc4c3CC[C@@H]4Oc3nc(OC)c(CNC4(C(=O)O)CC4)cc3C(F)(F)F)c2Cl)ccc1CN1CC(C)(O)C1 [B-171]	0.064	15.2		
COc1nc(-c2cccc(-c3cccc4c3CC[C@@H]4Oc3nc(OC)c(CN4CC5CC4(C(=O)O)C5)cc3C(F)(F)F)c2Cl)ccc1CNC[C@@H]1CCC(=O)N1 [B-145]	0.064	5.12		
COc1nc(-c2cccc(-c3cccc4c3CC[C@@H]4Oc3nc(OC)c(CN4CC5(C(=O)O)CCC4CC5)nc3Cl)c2Cl)ccc1CNC[C@@H]1CCC(=O)N1 [B-153]	0.064	19		
COc1nc(-c2cccc(-c3cccc4c3CC[C@@H]4Nc3nc(OC)c(CNC[C@@H]4CCC(=O)N4)cc3Cl)c2Cl)ccc1CNC[C@@H]1CCC(=O)N1 [A-9]			1.66	150
COc1nc(O[C@H]2CCc3c(-c4cccc(-c5cnc(CNC[C@@H]6CCC(=O)N6)c(OC)n5)c4C)cccc32)c(Cl)cc1CN1CC2(C(=O)O)CCC1CC2 [B-80]	0.064	46.9		
COC(=O)[C@@H]1CCN(Cc2ncc(O[C@H]3CCc4c(-c5cccc(-c6ccc(CNC[C@@H]7CCC(=O)N7)c(OC)n6)c5Cl)cccc43)nc2OC)C1 [B-157]	0.195	1420		
COc1nc(-c2cccc(-c3cccc4c3CC[C@@H]4Oc3nc(OC)c(CN4CC5(C(=O)O)CCC4CC5)cc3Cl)c2Cl)ccc1CN[C@H]1CCCC[C@H]1O [B-50]	0.064	26.1		
COc1nc(-c2cccc(-c3cccc4c3CC[C@@H]4Oc3nc(OC)c(CN[C@H](C(=O)O)C4CC4)cc3C(F)(F)F)c2Cl)ccc1CNC[C@@H]1CCC(=O)N1 [B-268]	0.064	3.76		
COc1cc(N[C@H]2CCc3c(-c4cccc(-c5ccc(CNC[C@@H]6CCC(=O)N6)c(OC)n5)c4Cl)cccc32)c(C(F)(F)F)nc1CN1CC[C@@](C)(C(=O)O)C1 [A-42]			≤ 0.064	12.6
COc1nc(-c2cccc(-c3cccc4c3CC[C@@H]4Oc3nc(OC)c(CN4CCC5CC4(C(=O)O)C5)cc3C(F)(F)F)c2Cl)ccc1CN1CC2(CCC(=O)N2)C1 [B-228]	0.064	6.43		
COc1nc(-c2cccc(-c3cccc4c3CC[C@@H]4Oc3nc(OC)c(CN[C@@H](C)C(N)=O)cc3C(F)(F)F)c2Cl)ccc1CNC[C@@H]1CCC(=O)N1 [B-265]	0.079	14.2		
COc1nc(-c2cccc(-c3cccc4c3CC[C@@H]4Nc3nc(OC)c(CN[C@@H](C)C(=O)O)cc3C(F)(F)F)c2Cl)ccc1CNC[C@H]1C[C@](C)(O)C1 [A-83]			≤ 0.064	23.6
COc1nc(O[C@H]2CCc3c(-c4cccc(-c5cc(F)c(CNC[C@@H]6CCC(=O)N6)c(OC)n5)c4Cl)cccc32)c(C(F)(F)F)cc1CNC1(C(=O)O)CC1 [B-189]	0.064	9.85		

SMILES	IC50 (PD-1/PD-L1; [1]) [nM]	AC50 (PD-L1; [2]) [nM]	IC50 (PD-1/PD-L1; [3]) [nM]	AC50 (PD-L1; [4]) [nM]
COc1nc(-c2cccc(-c3cccc4c3CC[C@@H]4Oc3nc(OC)c(CN4CC[C@@H](C(=O)O)C4)nc3Cl)c2Cl)ccc1CNC[C@@H]1CCC(=O)N1 [B-154]	0.064	31.5		
COc1nc(-c2cccc(-c3cccc4c3CC[C@@H]4Oc3nc(OC)c(CN4C[C@H]5[C@@H]([C@H]4C(=O)O)C5(C)C)cc3Cl)c2Cl)ccc1CNC[C@@H]1CCC(=O)N1 [B-182]	0.064	31.1		
COc1cc(-c2cccc(-c3cccc4c3CC[C@@H]4Oc3nc(OC)c(CN4CC5(C(=O)O)CCC4CC5)cc3Cl)c2Cl)cc(F)c1CNC[C@@H]1CCC(=O)N1 [B-129]	0.064	16.5		
COc1nc(-c2cccc(-c3cccc4c3CC[C@@H]4Oc3nc(OC)c(CNCC(=O)O)cc3C(F)(F)F)c2Cl)ccc1CNC[C@H]1C[C@](C)(O)C1 [B-206]	0.064	7.77		
COc1nc(-c2cccc(-c3cccc4c3CC[C@@H]4Oc3nc(OC)c(CN4CCCC[C@@]4(C)C(=O)O)cc3C(F)(F)F)c2Cl)ccc1CNC[C@@H]1CCC(=O)N1 [B-135]	0.064	2.76		
COc1nc(-c2cccc(-c3cccc4c3CC[C@@H]4Oc3nc(OC)c(CN4CCC(C(=O)O)CC4)cc3Cl)c2Cl)ccc1CNC[C@@H]1CCC(=O)N1 [B-115]	0.064	26.3		
COc1cc(-c2cccc(-c3cccc4c3CC[C@@H]4Oc3nc(OC)c(CN4CC5(C(=O)O)CCC4CC5)cc3C(F)(F)F)c2Cl)cc(F)c1CNC[C@@H]1CCC(=O)N1 [B-194]	0.064	4.54		
COc1nc(-c2cccc(-c3cccc4c3CC[C@@H]4Oc3nc(OCC#N)c(CNC4(C(=O)O)CC4)cc3C(F)(F)F)c2Cl)ccc1CNC[C@@H]1CCC(=O)N1 [B-22]	0.074	13.4		
COc1nc(-c2cccc(-c3cccc4c3CC[C@@H]4Oc3nc(OC)c(CN4CC5(CC5)C[C@H]4C(=O)O)cc3C(F)(F)F)c2Cl)ccc1CNC[C@@H]1CCC(=O)N1 [B-144]	0.064	8.98		
COc1cc(-c2cccc(-c3cccc4c3CC[C@@H]4Oc3nc(OC)c(CN4CC[C@@H](C(=O)O)C4)cc3Cl)c2Cl)cc(F)c1CNC[C@@H]1CCC(=O)N1 [B-131]	0.064	10.5		
COc1cc(-c2cccc(-c3cccc4c3CC[C@@H]4Oc3nc(OC)c(CN4CC(C(=O)O)C4)cc3Cl)c2Cl)cc(F)c1CNC[C@@H]1CCC(=O)N1 [B-130]	0.064	4.87		
COc1nc(-c2cccc(-c3cccc4c3CC[C@@H]4Oc3nc(OC)c(CN4C[C@@H]5CCC[C@]5(C(=O)O)C4)cc3Cl)c2Cl)ccc1CN1CC(C)(O)C1 [B-83]	0.064	211		
COc1nc(-c2cccc(-c3cccc4c3CC[C@@H]4Oc3nc(OC)c(CN4CC5(C(=O)O)CCC4CC5)cc3C(F)(F)F)c2Cl)ccc1CNC[C@H]1C[C@](C)(O)C1 [B-209]	0.064	11.7		
COc1cc(-c2cccc(-c3cccc4c3CC[C@@H]4Nc3nc(OC)c(CNCC(=O)O)nc3C(F)(F)F)c2Cl)ccc1CNC1CC(O)(CF)C1 (stereo partly drawn) [A-108]			≤ 0.064	6.64
COc1nc(-c2cccc(-c3cccc4c3CC[C@@H]4Oc3nc(OCc4cncc(Cl)c4)c(CN4CC5(C(=O)O)CCC4CC5)cc3Cl)c2Cl)ccc1CNC[C@@H]1CCC(=O)N1 [B-48]	0.064	7.12		
COc1nc(-c2cccc(-c3cccc4c3CC[C@@H]4Oc3nc(OC)c(CN4CC[C@@](C)(C(=O)O)C4)cc3C(F)(F)F)c2Cl)ccc1CN[C@H]1C[C@](C)(O)C1 [B-213]	0.064	17		
COc1nc(-c2cccc(-c3cccc4c3CC[C@@H]4Oc3nc(OCc4cncc(Cl)c4)c(CNC4(C(=O)O)CC4)cc3Cl)c2Cl)ccc1CNC[C@@H]1CCC(=O)N1 [B-32]	0.095	12.9		
COc1nc(O[C@H]2CCc3c(-c4cccc(-c5cnc(CNC[C@@H]6CCC(=O)N6)c(OC)n5)c4C#N)cccc32)c(Cl)cc1CN1CC[C@@H](C(=O)O)C1 [B-69]	0.064	156		
CNc1nc(-c2cccc(-c3cccc4c3CC[C@@H]4Oc3nc(OC)c(CN4CC[C@@H](C(=O)O)C4)cc3Cl)c2Cl)cnc1CN1CC(C)(O)C1 [B-21]	0.064	31.2		
